Source: patent US20250195523A1, “ORGANIC MOLECULES FOR TREATING MYELIN PATHOLOGIES” (ICM (INSTITUT DU CERVEAU ET DE LA MOELLE ÉPINIÈRE), priority 2022, published 2025)

What was measured:
[1] = test system: neonatal chronic hypoxia model (dorsal SVZ and cortex); test: Neonatal chronic hypoxia model of preterm birth brain injury, intranasal administration; format: in vivo, mice
Experimental: Mice aged P1 were placed in a hypoxic rearing chamber maintaining at 9.5-10.5% O2 concentration by displacement with N2. Hypoxia began at the postnatal day 3 (P3) for 8 days until P11. A separate group was maintained in a normal atmosphere (normoxic group). […] Mucus was first permeabilized by the use of type IV hyaluronidase, then 10 μl of drugs (Sigma) was administered 3 times, 1 time a day from P11 to P13 (starting at the end of the hypoxic period, then every 24 hours) in sterile PBS (control). For analysis of proliferation, mice were injected with EdU (Sigma) in order to label cells in an actively cycling state in S-phase, then perfused 1 h later at P13. For analysis of OL maturation, mice were perfused at P19. All perfusions were performed with Ringer, followed by ice cold solution of 4% paraformaldehyde (Thermo Fisher). Mice were sacrificed at P13 or P19 by an intraperitoneal overdose of pentobarbital followed by perfusion with Ringer's lactate solution and 4% paraformaldehyde (PFA; Sigma) dissolved in 0.1M phosphate buffer (PB; pH 7.4). Brains were removed and post-fixed for 24 hours at 4° C. in 4% PFA and sectioned in 50 μm thick coronal serial sections, free floating sections.
For in vivo-cryosections (50 μm) of chronic hypoxia, antigen retrieval was performed for 20 min in a citrate buffer (ph 6.0) at 80° C., then cooled for 20 min at room temperature and washed in 0.1M PB. The following antibody were used for immunohistochemical procedures: Mouse anti-APC (CC1 IgG2B; 1:100, calbiochem); Mouse anti-Olig2 (1:1500; Millipore); Rabbit anti-Olig2 (1:400; Millipore); Rabbit anti-GSTpi (1:1000, Enzo). Blocking was performed in a TNB buffer (0.1 M PB; 0.05% Casein; 0.25% Bovine Serum Albumin; 0.25% TopBlock) with 0.4% triton-X (TNB-Tx). Sections were incubated overnight at 4° C. with gentle shaking. Following extensive washing in 0.1 M PB with 0.4% triton-X (PB-Tx), sections were incubated with appropriate secondary antibodies conjugated with Alexa Fluor 488 or 555 (1:500; Jackson or Invitrogen) for 2 hrs at room temperature. Sections were washed and counterstained with Dapi (1:5000 from a working solution at 5 mg/ml; Life Technologies; D1306). Revelation of EdU was done using Click-it™, EdU cell proliferation Kit for imaging, Alexa fluor™ 647 dye (Thermo Fisher scientific).
Chronic hypoxia is a well-established model of very preterm birth, that induces a diffuse perinatal brain lesion by housing the pups at 10% oxygen from P3 to P11 (FIG. 5A). This neonatal hypoxia induces a marginal cell death including neuronal and glial cells along with delay into forebrain development including OL maturation that appear to persist in adulthood. […] We next assessed the impact on OL differentiation by immunodetection of OLs with CC1 antibody and oligodendroglial cells by Olig2.

[2] = test system: cerebellar slices explants; test: Ex vivo cerebellar organotypic explant culture, differentiation and myelination index; format: cell-based, mice; settings: 750 nM, three days (7-10 DIV)
Experimental: We prepared cerebellar organotypic cultures from newborn (P0) mice. Cerebellar parasagittal slices (350 μm thick) were cut on a McIlwain tissue chopper and transferred onto 30 mm diameter Millipore culture inserts with […] (Millicell, Millipore). Slices were maintained in incubators at 37° C., under a humidified atmosphere containing 5% CO2 in six-well-plates containing 1 mL of slice culture media. This medium includes basal medium eagle (Invitrogen), 25% complete HBSS, 27 mM D-glucose, 100 U/mL penicillin/streptomycin, 1 mM glutamine (Sigma) and 5% horse serum (New Zealand origin, heat inactivated; Invitrogen). Medium was renewed every 2 days until 7 DIV, reaching the appropriate culture periods to study OPC differentiation and myelination. […] Slices were collected and fixed for 1 h at RT in PBS-4% paraformaldehyde, washed 3 times in PBS, and incubated 20 min at 4° C. in Clark's solution (95% ethanol/5% acetic acid), then washed 3 times in PBS 1×.
For ex-vivo cerebellar slices, slices were incubated 20 min at 4° C. in Clark's solution (95% ethanol/5% acetic acid), then washed 3 times in PBS 1×. Then, sections were incubated for 1 hour in a blocking buffer (0.2% Triton X-100/4% bovine serum albumin/4% donkey serum/PBS). Slices were incubated for 2 hours with the following primary antibodies at RT: Goat anti-Sox10 (1:100, R&D Systems); Rabbit anti-Calbindin (1:1000; Swant); Rat anti-MBP (1:200; Abcam); Mouse anti-CC1 (IgG2b; 1:100, Calbiochem). Then slices were washed 3 times in PBS/0.1% Triton X-100 and incubated in blocking buffer (dark, RT) for 2 hours with appropriate secondary antibodies conjugated with Alexa Fluor 488, 594 and 647 (1:1000; Molecular Probes or Thermo Fisher) and Dapi (1:5000 from working solution at 5 mg/ml; Life Technologies; D1306). Finally, slices were washed 3 times in PBS/0.1% Triton X-100 after incubation and mounted in Fluoromount-G (SouthernBiotech).
Then, we firstly performed a simpler and faster experimental model using cerebellar slices explants to identify the best drugs having pro-oligodendrogenenic and pro-myelinating activities in this ex vivo model, to be used in the in vivo analyses. Indeed, this model allowed us to better assess later aspects of OL maturation, myelination, and cytotoxicity in a richer cellular system, also containing immune cells (microglia/macrophages) that are known to influence oligodendrogenesis and (re) myelination. In this model, the start of myelination takes place after 7 days in culture (FIG. 3A). […] We then analyzed the effect in terms of OL numbers (CC1+/Sox10+ cells) and myelination (MBP labeling on CaBP+ Purkinje cell axons), by immunodetection of all four markers in the same sections. We calculated the differentiation index as the ratio of Sox10+ cells being CC1+, and the myelination index as the ratio CaBP+ axons being MBP+. […] On the one hand, we used the adult focal de/remyelination induced by intracerebral injection of […] (LPC) mimicking de/remyelination of MS, and on the other hand, the neonatal chronic hypoxia model, mimicking PTB hypomyelination.

With `CCCCOc1ccc(C(=O)CCN2CCCCC2)cc1.Cl` [Sm5, Dyclonine hydrochloride] the “EdU+ cell density within the subventricular zone (proliferation)” value ([1]; P13, intranasal P11 to P13, sm5 at 5 μg per g, sm11 at 0.5 μg per g, versus hypoxia, FIG. 6A) was “no marked additive effects”, the “proportion of Olig2+ cells labeled with EdU (proliferative OPCs, dorsal SVZ)” value ([1]; P13, intranasal P11 to P13, versus hypoxia, FIG. 6B) was “significant increase” and the “myelinating OLs (GSTπ+ cells), GSTπ expression” value ([1]; P19, cortex, intranasal P11 to P13, after hypoxia, FIG. 5D) was “complete recovery”. For the same compound, the “OL differentiation, ratio of Olig2+ cells expressing CC1” value ([1]; P19, cortex, intranasal P11 to P13, compared to hypoxic and normoxic groups, FIG. 5C) was “increased OL differentiation beyond the normoxic and sm11 groups”, the “density of oligodendroglial cells (Olig2+ cells) in the cortex” value ([1]; P19, intranasal P11 to P13, FIG. 5B) was “no major effect” and the “differentiation index (CC1+/Sox10+ OLs number)” value ([2]; compared to negative controls, FIG. 3B) was “increased differentiation index”. The “myelination process (MBP+/CaBP+), myelination index” value ([2]; compared to vehicle, FIG. 3C) was “robust increase”.
